# Laboratory results from patent US10508088B2, “Methods using HDAC11 inhibitors” (FORMA Therapeutics, Inc., priority 2016, dated 2019).
# pIC50: −log10 of the molar value.
# Target: Recombinant N-terminal GST tag full-length human HDAC11 (Homo sapiens (Human), UniProt Q96DB2)
# Experiment: Probe binding HDAC11 assay, time resolved fluorescence (TRF)
# Conditions: read-out: HDAC11 IC50 Range
# Method: The probe binding HDAC11 assay was performed using a time resolved fluorescence (TRF) assay format. Recombinant N-terminal GST tag full-length human HDAC11 was expressed and purified from baculovirus in Sf9 insect cells (SignalChem, # H93-30G-1000). Each assay was performed in 1536 black well microplates (Corning, #3936) in a final volume of 8 μL in assay buffer containing 50 mM HEPES (pH 7.5), 50 mM KCl, 50 mM NaCl, 0.5 mM GSH (L-Glutathione reduced, Sigma #G4251), 0.03% BGG (0.22 μM filtered, Sigma, #G7516-25G), and 0.01% Triton X-100 (Sigma, #T9284-10L). 100 nL of 10-point, 3-fold serial dilution in DMSO was pre-dispensed into respective wells of 1536 assay plates for a final test concentration range of 25 μM to 1.3 nM respectively. The final concentration in the assay of HDAC11 and probe (a fluorescein labeled HDAC 11 inhibitor) was 2.5 nM and 20 nM respectively. 4 μL of 2× probe and 2× anti-GST Terbium (Cisbio, #61GSTXLB) was added to assay plates followed by 4 μL of 2×HDAC11. Plates were incubated for 16 hours at room temperature before time resolved fluorescence was read on the Envision (Excitation at 340 nm, and Emission at 485 nm and 535 nm, Perkin Elmer).
# Data from HDAC11 Assays were reported as percent inhibition (inh) compared with control wells based on the following equation: % inh=1−((FLU−AveLow)/(AveHigh−AveLow)) where FLU=measured time resolved fluorescence. AveLow=average time resolved fluorescence of no enzyme control (n=32). AveHigh=average time resolved fluorescence of DMSO control (n=32). IC50 values were determined by curve fitting of the standard 4 parameter logistic fitting algorithm included in the Activity Base software package: IDBS XE Designer Model205. Data is fitted using the Levenburg Marquardt algorithm.
# Recombinant N-terminal GST tag full-length human HDAC11, sequence (Q96DB2 whole entry): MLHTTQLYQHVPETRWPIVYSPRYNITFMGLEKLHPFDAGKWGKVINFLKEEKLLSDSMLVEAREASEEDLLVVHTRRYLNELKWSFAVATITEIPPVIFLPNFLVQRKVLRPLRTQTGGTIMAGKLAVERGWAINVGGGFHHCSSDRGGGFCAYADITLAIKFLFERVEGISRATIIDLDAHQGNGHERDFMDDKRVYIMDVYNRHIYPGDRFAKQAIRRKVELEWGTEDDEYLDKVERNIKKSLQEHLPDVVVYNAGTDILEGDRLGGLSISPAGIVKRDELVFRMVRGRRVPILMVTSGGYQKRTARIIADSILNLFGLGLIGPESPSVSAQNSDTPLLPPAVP
row,Structure (SMILES),pIC50
1,"Cn1c(Nc2cccc(C(=O)NO)c2)nc2cc(C(F)(F)F)c(-c3ccccc3)cc21 [Example 35-3, N-hydroxy-3-((1-methyl-6-phenyl-5-(trifluoromethyl)-1H-benzo[d]imidazol-2-yl)amino)benzamide]",> 6.30
2,"O=C(NO)c1cccc(Nc2nc3cc(-c4ccccc4)c(C(F)(F)F)cc3[nH]2)c1 [Example 36-1, N-hydroxy-3-((5-phenyl-6-(trifluoromethyl)-1H-benzo[d]imidazol-2-yl)amino)benzamide]",> 6.30
3,"O=C(NO)c1cccc(Nc2nc3cc(C(F)(F)F)c(-c4cccnc4)cc3[nH]2)c1 [Example 36-2, N-hydroxy-3-((6-(pyridin-3-yl)-5-(trifluoromethyl)-1H-benzo[d]imidazol-2-yl)amino)benzamide]",> 6.30
4,"O=C(NO)c1cccc(Nc2nc3cc(-c4ccncc4)c(C(F)(F)F)cc3[nH]2)c1 [Example 36-3, N-hydroxy-3-((5-(pyridin-4-yl)-6-(trifluoromethyl)-1H-benzo[d]imidazol-2-yl)amino)benzamide]",> 6.30
5,"CCOc1cccc(-c2cc3[nH]c(Nc4cccc(C(=O)NO)c4)nc3cc2C(F)(F)F)c1 [Example 36-4, 3-((6-(3-ethoxyphenyl)-5-(trifluoromethyl)-1H-benzo[d]imidazol-2-yl)amino)-N-hydroxybenzamide]",> 6.30
6,"CSc1ccc(-c2cc3[nH]c(Nc4cccc(C(=O)NO)c4)nc3cc2C(F)(F)F)cc1 [Example 36-5, N-hydroxy-3-((6-(4-(methylthio)phenyl)-5-(trifluoromethyl)-1H-benzo[d]imidazol-2-yl)amino)benzamide]",> 6.30
7,"CN(C)C(=O)c1ccc(-c2cc3[nH]c(Nc4cccc(C(=O)NO)c4)nc3cc2C(F)(F)F)cc1 [Example 36-6, 4-(2-((3-(hydroxycarbamoyl)phenyl)amino)-5-(trifluoromethyl)-1H-benzo[d]imidazol-6-yl)-N,N-dimethylbenzamide]",> 6.30
8,"COCc1ccc(-c2cc3[nH]c(Nc4cccc(C(=O)NO)c4)nc3cc2C(F)(F)F)cc1 [Example 36-7, N-hydroxy-3-((6-(4-(methoxymethyl)phenyl)-5-(trifluoromethyl)-1H-benzo[d]imidazol-2-yl)amino)benzamide]",> 6.30
9,"O=C(NO)c1cccc(Nc2nc3cc(C(F)(F)F)c(-c4ccc5ncccc5c4)cc3[nH]2)c1 [Example 36-8, N-hydroxy-3-((6-(quinolin-6-yl)-5-(trifluoromethyl)-1H-benzo[d]imidazol-2-yl)amino)benzamide]",> 6.30
10,"O=C(NO)c1cccc(Nc2nc3cc(C(F)(F)F)c(-c4ccc5c(c4)OCCO5)cc3[nH]2)c1 [Example 36-9, 3-((6-(2,3-dihydrobenzo[b][1,4]dioxin-6-yl)-5-(trifluoromethyl)-1H-benzo[d]imidazol-2-yl)amino)-N-hydroxybenzamide]",> 6.30
11,"O=C(NO)c1cccc(Nc2nc3cc(C(F)(F)F)c(-c4cccc(O)c4)cc3[nH]2)c1 [Example 36-10, N-hydroxy-3-((6-(3-hydroxyphenyl)-5-(trifluoromethyl)-1H-benzo[d]imidazol-2-yl)amino)benzamide]",> 6.30
12,"O=C(NO)c1cccc(Nc2nc3cc(C(F)(F)F)c(-c4ccccc4CO)cc3[nH]2)c1 [Example 36-11, N-hydroxy-3-((6-(2-(hydroxymethyl)phenyl)-5-(trifluoromethyl)-1H-benzo[d]imidazol-2-yl)amino)benzamide]",> 6.30
13,"CN(C)c1ccc(-c2cc3[nH]c(Nc4cccc(C(=O)NO)c4)nc3cc2C(F)(F)F)cn1 [Example 36-12, 3-((6-(6-(dimethylamino)pyridin-3-yl)-5-(trifluoromethyl)-1H-benzo[d]imidazol-2-yl)amino)-N-hydroxybenzamide]",> 6.30
14,"O=C(NO)c1cccc(Nc2nc3cc(C(F)(F)F)c(-c4cnc(N5CCOCC5)nc4)cc3[nH]2)c1 [Example 36-13, N-hydroxy-3-((6-(2-morpholinopyrimidin-5-yl)-5-(trifluoromethyl)-1H-benzo[d]imidazol-2-yl)amino)benzamide]",> 6.30
